Test results published in article PMC4448979 (Pharmacology Research & Perspectives, 2015).
Blank lines part the entries; values can stand above or below the compound they belong to.

Tests used:
Assay type in all cases: cell-based
[1] = target: T1, human P2X7 receptor (HEK-hP2X7) (Homo sapiens, UniProt Q99572); assay: YoPro1 dye uptake, fluorescence plate reader; settings: agonist; HEK-hP2X7 cells
T1 sequence (Q99572 1-595): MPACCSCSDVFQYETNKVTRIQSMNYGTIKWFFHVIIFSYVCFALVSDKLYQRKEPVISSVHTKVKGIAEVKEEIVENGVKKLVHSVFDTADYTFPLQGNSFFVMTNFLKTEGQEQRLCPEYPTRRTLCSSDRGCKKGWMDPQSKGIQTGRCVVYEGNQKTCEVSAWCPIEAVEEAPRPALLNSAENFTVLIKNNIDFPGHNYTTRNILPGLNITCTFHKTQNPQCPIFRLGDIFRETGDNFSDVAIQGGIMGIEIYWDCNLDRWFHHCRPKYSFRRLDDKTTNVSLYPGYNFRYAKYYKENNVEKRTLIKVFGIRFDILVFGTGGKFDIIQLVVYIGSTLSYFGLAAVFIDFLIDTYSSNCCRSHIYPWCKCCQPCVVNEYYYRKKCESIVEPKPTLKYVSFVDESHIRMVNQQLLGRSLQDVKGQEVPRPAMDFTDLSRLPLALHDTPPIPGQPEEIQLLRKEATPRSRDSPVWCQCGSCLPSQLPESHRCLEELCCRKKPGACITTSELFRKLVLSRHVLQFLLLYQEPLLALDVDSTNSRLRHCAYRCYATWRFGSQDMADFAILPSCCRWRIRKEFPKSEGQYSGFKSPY

[2] = target: T2, human P2X4 (1321N1) (Homo sapiens, UniProt Q99571); assay: Fluo-4 calcium flux, fluorescence plate reader; settings: 1321-N1, read-out: decrease in remaining activity at 10 μmol/L
T2 sequence (Q99571 1-388): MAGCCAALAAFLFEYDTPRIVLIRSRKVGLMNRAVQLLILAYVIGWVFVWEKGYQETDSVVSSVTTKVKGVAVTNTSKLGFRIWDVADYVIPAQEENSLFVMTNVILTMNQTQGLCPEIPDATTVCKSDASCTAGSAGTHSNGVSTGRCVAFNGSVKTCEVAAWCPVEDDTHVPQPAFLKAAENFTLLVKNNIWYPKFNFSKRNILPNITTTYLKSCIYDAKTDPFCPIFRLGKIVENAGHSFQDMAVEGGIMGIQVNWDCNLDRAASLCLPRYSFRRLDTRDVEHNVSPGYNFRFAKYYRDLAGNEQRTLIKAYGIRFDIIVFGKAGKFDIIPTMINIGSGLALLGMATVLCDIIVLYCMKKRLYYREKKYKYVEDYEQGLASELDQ

[3] = target: T3, P2X7 receptor of mouse microglia BV2 cells (Mus musculus, UniProt Q9Z1M0); assay: whole-cell patch clamp; settings: antagonist; 100 μmol/L BzATP; -70 mV, room temperature, pH 7.4
T3 sequence (Q9Z1M0 1-595): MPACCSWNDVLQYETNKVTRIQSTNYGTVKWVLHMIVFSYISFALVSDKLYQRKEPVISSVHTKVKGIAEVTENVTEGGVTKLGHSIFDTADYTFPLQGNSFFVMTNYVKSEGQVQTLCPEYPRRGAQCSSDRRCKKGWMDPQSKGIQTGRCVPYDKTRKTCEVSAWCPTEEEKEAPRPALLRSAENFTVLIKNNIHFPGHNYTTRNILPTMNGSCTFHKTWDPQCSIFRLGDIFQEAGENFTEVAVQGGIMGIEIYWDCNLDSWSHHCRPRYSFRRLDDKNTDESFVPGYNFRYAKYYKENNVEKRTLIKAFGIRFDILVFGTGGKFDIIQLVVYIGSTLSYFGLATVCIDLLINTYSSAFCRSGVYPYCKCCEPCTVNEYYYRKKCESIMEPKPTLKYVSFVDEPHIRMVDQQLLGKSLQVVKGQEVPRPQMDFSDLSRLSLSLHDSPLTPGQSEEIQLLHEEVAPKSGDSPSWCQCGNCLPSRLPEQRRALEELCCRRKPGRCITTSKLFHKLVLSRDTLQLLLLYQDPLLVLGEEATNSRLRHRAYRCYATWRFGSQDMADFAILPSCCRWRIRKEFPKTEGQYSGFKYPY

[4] = target: T1, human P2X7 receptor (HEK-hP2X7); assay: YoPro1 dye uptake, fluorescence plate reader
[5] = target: T1, human P2X7 receptor (HEK-hP2X7); assay: cytosensor, cell impedance

SMILES: Nc1ncnc2c1ncn2[C@@H]1O[C@H](COP(=O)(O)OP(=O)(O)OP(=O)(O)O)[C@@H](O)[C@H]1O [ATP]
YoPro1 dye uptake, fluorescence plate reader [1]: confirmed using the YoPro1 uptake assay upon stimulation of the target cells with ATP

remaining activity at 10 µM [2]: 27% | IC50 [3]: 1000 to 3000 nM | IC50 [4]: 11.2 nM
SMILES: O=C(NCC12CC3CC(CC(C3)C1)C2)c1cc(CCCNCCCO)ccc1Cl [AZD9056]

EC50 [5]: 9600 ± 1800 nM
SMILES: Nc1ncnc2c1ncn2[C@@H]1O[C@H](COP(=O)(O)OP(=O)(O)OP(=O)(O)O)[C@@H](OC(=O)c2ccc(C(=O)c3ccccc3)cc2)[C@H]1O [BzATP, 2′, 3′–O–(4-benzoylbenzoyl)–ATP]
